Counter-ions that a name gives are not always drawn.
Assays:
[1] = target: T1, proMMP9(67-444;ΔFnII) (SEQ ID NO:5) (Homo sapiens, UniProt P14780, DEL216-390); experiment: ThermoFluor binding assay with proMMP9(67-444;ΔFnII); details: pH 7.0
T1 construct: start methionine (N); made in house; host or cells: E. coli BL21(DE3) RIL
T1 sequence (P14780 with tags, fused parts or gaps DEL216-390): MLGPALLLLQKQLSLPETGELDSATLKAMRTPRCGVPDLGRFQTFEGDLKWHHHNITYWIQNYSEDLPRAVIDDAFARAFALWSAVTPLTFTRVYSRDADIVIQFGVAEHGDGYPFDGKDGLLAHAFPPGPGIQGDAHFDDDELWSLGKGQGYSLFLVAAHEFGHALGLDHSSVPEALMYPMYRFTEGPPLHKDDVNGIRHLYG
Protocol: (§1) The ThermoFluor® (TF) assay is a 384-well plate-based binding assay that measures thermal stability of proteins (Biomol Screen 2001, 6, 429-40; Biochemistry 2005, 44, 5258-66). The experiments were carried out using instruments available from Johnson & Johnson Pharmaceutical Research & Development, LLC. TF dye used in all experiments was […] (1,8-ANS) (Invitrogen: A-47).
(§2) Compounds were arranged in a pre-dispensed plate (Greiner Bio-one: 781280), wherein compounds were serially diluted in 100% DMSO across 11 columns within a series. Columns 12 and 24 were used as DMSO reference and contained no compound. For multiple compound concentration-response experiments, the compound aliquots ([…]) were robotically predispensed directly into black 384-well polypropylene PCR microplates (Abgene: TF-0384/k) using a Cartesian Hummingbird liquid handler (DigiLab, Holliston, Mass.). Following compound dispense, protein and dye solutions were added to achieve the final assay volume of 3 μL. The assay solutions were overlayed with 1 μL of silicone oil (Fluka, type DC 200: 85411) to prevent evaporation.
(§3) Assay plates were robotically loaded onto a thermostatically controlled PCR-type thermal block and then heated from 40 to 90° C. at a ramp-rate of 1° C./min for all experiments. Fluorescence was measured by continuous illumination with UV light (Hamamatsu LC6) supplied via fiber optics and filtered through a band-pass filter (380-400 nm; >6 OD cutoff). Fluorescence emission of the entire 384-well plate was detected by measuring light intensity using a CCD camera (Sensys, Roper Scientific) filtered to detect 500±25 nm, resulting in simultaneous and independent readings of all 384 wells. A single image with 20-sec exposure time was collected at each temperature, and the sum of the pixel intensity in a given area of the assay plate was recorded vs temperature and fit to standard equations to yield the Tm (J Biomol Screen 2001, 6, 429-40).
(§4) Thermodynamic parameters necessary for fitting compound binding for each proMMP were estimated by differential scanning calorimetry (DSC) and from ThermoFluor® data. The heat capacity of unfolding for each protein was estimated from the molecular weight and from ThermoFluor® dosing data.
The protein sample preparations had to include a desalting buffer exchange step via a PD-10 gravity column (GE Healthcare). The desalting buffer exchange was performed prior to diluting the protein to the final assay concentration of 3.5 μM proMMP9(67-444;ΔFnII) (SEQ ID NO:5). The concentration of proMMP9(67-444;ΔFnII) (SEQ ID NO:5) was determined spectrophotometrically based on a calculated extinction coefficient of ε280=33900 M^−1cm^−1, a calculated molecular weight of 22.6 kDa, and calculated pI of 5.20. ThermoFluor® reference conditions were defined as follows: 80 μg/mL (3.5 μM) proMMP9(67-444;ΔFnII) (SEQ ID NO:5), 50 μM 1,8-ANS, pH 7.0 Buffer (50 mM HEPES pH 7.0, 100 mM NaCl, 0.001% Tween-20, 2.5 mM MgCl2, 300 μM CaCl2). The thermodynamic parameters for proMMP9(67-444;ΔFnII) (SEQ ID NO:5) are as follows: Tm (° C.)=63 (+/−0.1), ΔUH(Tm) (cal mol^−1)=105000(+/−5000), ΔUS(Tm) (cal mol^−1 K^−1)=[…], ΔUCp (cal mol^−1 K^−1)=2000.

[2] = target: T2, proMMP9(20-445;ΔFnII) (SEQ ID NO:6) (Homo sapiens, UniProt P14780, DEL216-390); experiment: ThermoFluor binding assay with proMMP9(20-445;ΔFnII); details: pH 7.0
T2 construct: start methionine (N); made in house; host or cells: E. coli BL21(DE3) RIL
T2 sequence (P14780 with tags, fused parts or gaps DEL216-390): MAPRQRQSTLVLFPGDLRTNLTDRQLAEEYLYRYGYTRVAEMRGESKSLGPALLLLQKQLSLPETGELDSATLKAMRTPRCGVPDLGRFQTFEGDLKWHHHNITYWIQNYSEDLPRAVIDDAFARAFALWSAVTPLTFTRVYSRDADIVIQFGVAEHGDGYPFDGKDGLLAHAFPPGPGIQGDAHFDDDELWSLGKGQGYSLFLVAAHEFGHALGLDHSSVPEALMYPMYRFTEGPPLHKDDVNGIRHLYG
Protocol: as §1, §2, §3, §4
The protein sample preparations included a desalting buffer exchange step via a PD-10 gravity column (GE Healthcare). The desalting buffer exchange was performed prior to diluting the protein to the final assay concentration of 2.8 μM proMMP9(20-445;ΔFnII) (SEQ ID NO:6). The concentration of proMMP9(20-445;ΔFnII) (SEQ ID NO:6) was determined spectrophotometrically based on a calculated extinction coefficient of ε280=39880 M^−cm^−1, a calculated molecular weight of 28.2 kDa, and calculated pI of 5.5. ThermoFluor® reference conditions were define as follows: 80 μg/mL (2.8 μM) proMMP9(20-445;ΔFnII) (SEQ ID NO:6), 50 μM 1,8-ANS, pH 7.0 Buffer (50 mM HEPES pH 7.0, 100 mM NaCl, 0.001% Tween-20, 2.5 mM MgCl2, 300 μM CaCl2). The thermodynamic parameters for proMMP9(20-445;ΔFnII) (SEQ ID NO:6) are as follows: Tm (° C.)=72 (+/−0.1), ΔUH(Tm) (cal mol^−1)=160000(+/−5000), ΔUS(Tm) (cal mol^−1 K^−1)=434, ΔUCp (cal mol^−1 K^−)=2400.

[3] = target: proMMP13(1-268) (SEQ ID NO:7) (Homo sapiens, UniProt P45452); experiment: ThermoFluor binding assay with proMMP13(1-268); parameters: 6xHis (C); made in house; details: pH 7.0
Protocol: as §1, §2, §3, §4
The proMMP13(1-268) (SEQ ID NO:7) protein sample preparations included a desalting buffer exchange step via a PD-10 gravity column (GE Healthcare). The desalting buffer exchange was performed prior to diluting the protein to the final assay concentration of 3.5 μM. The concentration of proMMP13(1-268) (SEQ ID NO:7) was estimated spectrophotometrically based on a calculated extinction coefficient of ε280=37000 M^−1cm^−1, a calculated molecular weight of 30.8 kDa, and calculated pI of 5.33. ThermoFluor® reference conditions were defined as follows: 100 μg/mL proMMP13(1-268) (SEQ ID NO:7), 25 μM 1,8-ANS, pH 7.0 Buffer (50 mM HEPES pH 7.0, 100 mM NaCl, 0.001% Tween-20, 2.5 mM MgCl2, 300 μM CaCl2). The thermodynamic parameters for proMMP13(1-268) (SEQ ID NO:7) are as follows: Tm (° C.)=67 (+/−0.1), ΔUH(Tm) (cal mol^−1)=107000(+/−5000), ΔUS(Tm) (cal mol^−1 K^−1)=318, ΔUCp (cal mol^−1 K^−1)=2600.

[4] = target: T3, full-length proMMP9(1-707) (SEQ ID NO:1) (Homo sapiens, UniProt P14780, R574P); experiment: proMMP9/MMP3 P126 Activation Assay; type: biochemical; details: 20 nM proMMP9, 20 nM MMP3, 80 min 37° C.
T3 construct: made in house; host or cells: HEK293 (proMMP9, secreted); E. coli (MMP3)
T3 sequence (P14780 20-707 R574P): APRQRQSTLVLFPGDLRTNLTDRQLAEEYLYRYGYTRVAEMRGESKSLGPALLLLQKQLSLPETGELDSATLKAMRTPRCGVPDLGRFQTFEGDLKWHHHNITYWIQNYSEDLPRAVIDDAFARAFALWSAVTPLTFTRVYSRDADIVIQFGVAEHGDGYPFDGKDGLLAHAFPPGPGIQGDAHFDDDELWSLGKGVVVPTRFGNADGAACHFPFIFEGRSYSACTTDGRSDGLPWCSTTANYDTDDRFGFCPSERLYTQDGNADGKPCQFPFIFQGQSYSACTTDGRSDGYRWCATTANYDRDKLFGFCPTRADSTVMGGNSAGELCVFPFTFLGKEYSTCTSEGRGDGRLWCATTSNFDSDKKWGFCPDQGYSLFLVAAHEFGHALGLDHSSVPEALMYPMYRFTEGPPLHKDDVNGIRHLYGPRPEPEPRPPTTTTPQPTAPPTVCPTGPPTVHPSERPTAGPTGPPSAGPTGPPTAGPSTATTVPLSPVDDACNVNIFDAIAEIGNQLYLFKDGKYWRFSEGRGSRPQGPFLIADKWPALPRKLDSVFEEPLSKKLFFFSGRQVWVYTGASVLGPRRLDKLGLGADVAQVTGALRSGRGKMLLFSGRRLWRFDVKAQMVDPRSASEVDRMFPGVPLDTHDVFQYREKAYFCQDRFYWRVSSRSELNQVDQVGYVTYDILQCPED
Protocol: The reaction volume was 50 μL. […] Reactivity of residual MMP3 towards P-126 substrate was minimal under these conditions.

SMILES | Kd [1] [µM] | Kd [2] [µM] | Kd [3] [µM] | IC50 [4] [µM]
CC(=O)Nc1nc(C)c(-c2csc(Nc3cccc4c3OCCO4)n2)s1 [Example 19, N-[2-(2,3-Dihydro-benzo[1,4]dioxin-5-ylamino)-4′-methyl-[4,5′]bithiazolyl-2′-yl]-acetamide] | 11 | 17 | 62 | –
Cc1nc(N)sc1-c1csc(Nc2cc(C(=O)O)ccc2OC(C)C)n1 [Example 77, 3-(2′-Amino-4′-methyl-[4,5′]bithiazolyl-2-ylamino)-4-isopropoxy-benzoic acid.TFA] | 0.45 | 0.35 | – | 0.41
Cc1nc(N2CCCC2)sc1-c1csc(Nc2cc(C(N)=O)ccc2OC(C)C)n1 [Example 91, 4-Isopropoxy-3-(4′-methyl-2′-pyrrolidin-1-yl-[4,5′]bithiazolyl-2-ylamino)-benzamide.TFA] | 0.52 | 0.14 | – | 0.3
Cc1nc(Nc2ccncc2)sc1-c1csc(Nc2cc(C(N)=O)ccc2OC(C)C)n1 [Example 92, 4-Isopropoxy-3-[4′-methyl-2′-(pyridin-4-ylamino)-[4,5′]bithiazolyl-2-ylamino]-benzamide.TFA] | 0.22 | 0.045 | – | 0.34
COc1ccc(-c2ccc(C(C)=O)s2)cc1Nc1nc(-c2sc(C)nc2C)cs1 [Example 134, 1-{5-[3-(2′,4′-Dimethyl-[4,5′]bithiazolyl-2-ylamino)-4-methoxy-phenyl]-thiophen-2-yl}-ethanone] | > 95 | 18 | – | > 20
COc1ccc(-c2c(C)noc2C)cc1Nc1nc(-c2sc(C)nc2C)cs1 [Example 135, (2′,4′-Dimethyl-[4,5′]bithiazolyl-2-yl)-[5-(3,5-dimethyl-isoxazol-4-yl)-2-methoxy-phenyl]-amine] | 40 | 31 | – | ~5
COc1ccc(-c2cnn(C)c2)cc1Nc1nc(-c2sc(C)nc2C)cs1 [Example 136, (2′,4′-Dimethyl-[4,5′]bithiazolyl-2-yl)-[2-methoxy-5-(1-methyl-1H-pyrazol-4-yl)-phenyl]-amine] | 8.2 | 38 | – | ~6
COc1ccncc1Nc1nc(-c2sc(C)nc2C)cs1 [Example 151, N-(4-Methoxypyridin-3-yl)-2′,4′-dimethyl-[4,5′-bithiazol]-2-amine] | 0.57 | 3.7 | – | 0.41
Cc1nc(C)c(-c2nc(Nc3cc(C(N)=O)ccc3OC(C)C)sc2C)s1 [Example 153, 4-Isopropoxy-3-((2′,4′,5-trimethyl-[4,5′-bithiazol]-2-yl)amino)benzamide] | 4.5 | 1.6 | – | 1.4
CCSc1ccc(S(N)(=O)=O)cc1Nc1nc(-c2sc(C)nc2C)cs1 [Example 154, 3-((2′,4′-Dimethyl-[4,5′-bithiazol]-2-yl)amino)-4-(ethylthio)benzenesulfonamide] | 2 | 2.2 | – | 2.6

The next lines start with the values.

Kd [1] [µM] | Kd [2] [µM] | Kd [3] [µM] | IC50 [4] [µM] | SMILES
9.7 | 19 | – | 9.8 | COc1ccc(NC(C)=O)cc1Nc1nc(-c2sc(N)nc2C)cs1 [Example 84, N-[3-(2′-Amino-4′-methyl-[4,5′]bithiazolyl-2-ylamino)-4-methoxy-phenyl]-acetamide.TFA]
> 95 | 1.9 | – | > 20 | Cc1nc(-c2ncc(C(F)(F)F)cc2N2CCCC2)sc1-c1csc(Nc2cc(C(N)=O)ccc2OC(C)C)n1 [Example 97, 4-Isopropoxy-3-[4′-methyl-2′-(3-pyrrolidin-1-yl-5-trifluoromethyl-pyridin-2-yl)-[4,5′]bithiazolyl-2-ylamino]-benzamide.TFA]
2.2 | 11 | – | 4.7 | COc1ccc(-c2cc[nH]n2)cc1Nc1nc(-c2sc(C)nc2C)cs1 [Example 137, (2′,4′-Dimethyl-[4,5′]bithiazolyl-2-yl)-[2-methoxy-5-(1H-pyrazol-3-yl)-phenyl]-amine]
0.65 | 0.13 | – | 0.78 | Cc1nc(-c2cnccn2)sc1-c1csc(Nc2cc(C(N)=O)ccc2OC(C)C)n1 [Example 145]
6.4 | 5.7 | – | 4.7 | Cc1nc(C)c(-c2nc(Nc3cc(S(N)(=O)=O)ccc3OC(C)C)sc2C)s1 [Example 152, 4-Isopropoxy-3-((2′,4′,5-trimethyl-[4,5′-bithiazol]-2-yl)amino)benzenesulfonamide]
0.34 | 1.9 | – | 0.29 | COc1ccncc1Nc1nc(-c2sc(N3CCN(C)CC3)nc2C)cs1 [Example 155, N-(4-Methoxypyridin-3-yl)-4′-methyl-2′-(4-methylpiperazin-1-yl)-[4,5′-bithiazol]-2-amine.TFA]

Source: patent publication US20120129842A1, “BISTHIAZOLE INHIBITORS OF PRO-MATRIX METALLOPROTEINASE ACTIVATION” (priority 2010, published 2012)
